Reference: the METLIN SMRT retention time set (Domingo-Almenara et al. 2019)

Assay: gradient 5% acetonitrile 3 min, to 50% in 2 min, to 85% in 15 min, held 3 min, 100 µL/min
Details: column: Zorbax Extend-C18 2.1 x 50 mm; eluents: water / acetonitrile, 0.1% formic acid
Procedure, shortened: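 In both positive and negative ionization mode, a quadrupole time-of-flight mass spectrometer coupled to HPLC analyzed pure standards run in mixtures of ~100 molecules. The Zorbax Extend-C18 column (2.1 × 50 mm, 1.8 μm) was operated at 100 μL/min with water and acetonitrile, each containing 0.1% formic acid. The dead volume was 40 μL and the dwell volume 900 μL. Retention time came from adduct peaks that were computationally picked and individually inspected by hand.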

| RP-LC retention time [s] | Structure (SMILES) |
| --- | --- |
| 830 | COc1c(NC(C)=O)c2ccccc2c2ccccc12 |
| 1270 | CCc1ccccc1N(C)S(=O)(=O)c1ccccc1-c1nc(-c2ccccc2)no1 |
| 772 | O=C(c1cc(F)ccc1F)N1CCC(OCC2CC2)C1 (centres undefined) |
| 577 | CCOC(=O)c1[nH]c(C)c(CCC(=O)N2CCC(C(=O)NCCN3CCN(CC)CC3)CC2)c1C |
| 720 | COc1ccc2nc(C(=O)N3CCCCC3)cc(Nc3ccc(F)c(F)c3)c2c1 |
| 606 | O=C(CCCc1ccccc1)N1CC(n2ccnc2)C1 |
| 855 | Cc1ccc(CN2CC(=O)N(c3cccc(C)c3)[C@@H]3CS(=O)(=O)C[C@@H]32)cc1 |
| 631 | Cc1ccn2c(=O)cc(CN(C)Cc3ccc(Cl)cc3)nc2c1 |
| 841 | CCOCCCNC(=O)C1CCN(c2nccnc2Oc2ccccc2C)CC1 |
| 590 | CCCNc1cc(N2CCC(CCC(=O)NCCOC)CC2)ncn1 |
| 924 | COc1ccc(C(=O)Nc2nc(-c3ccc4c(c3)NC(=O)C(C)O4)c(C)s2)cc1 (centres undefined) |
| 764 | CC(=O)c1ccc(N2CCN(C(=O)Cn3ccc4ccc(-c5nnc(C)o5)cc43)CC2)cc1 |
| 839 | COc1ccccc1-c1noc(C2CCCN2C(=O)c2ccc(C#N)cc2F)n1 (centres undefined) |
| 699 | CCN(CC)C(=O)c1ccc(-c2nnc3ccc(NC(=O)C4CC4)cn23)cc1 |
| 894 | COc1ccc(S(=O)(=O)Nc2cc3sc(=O)oc3c3ccccc23)cc1 |
| 822 | O=C(COc1ccc(F)c(F)c1)N1CCN(c2ncccc2-c2nnc(C3CC3)o2)CC1 |
| 686 | Cc1ccc(C(=O)Nc2ccc(N3CCN(C4CCCC4)C3=O)nc2)cc1N1CCCC1=O |
| 903 | CC1=C(c2ccc(C)c(C)c2)S(=O)(=O)N=C1N1CCCN(C(=O)C(C)(C)C)CC1 |
| 672 | Cn1nc(C2CCCN(C(=O)c3ccoc3)C2)n(C2CCCC2)c1=O (centres undefined) |
| 698 | O=C(c1ccoc1)N1CCN(c2cc(-c3ccccc3)[nH]n2)CC1 |

| RP-LC retention time [s] | Structure (SMILES) |
| --- | --- |
| 1130 | O=C(c1csc(N2CCN(c3ccc(Cl)cc3)CC2)n1)N1CCCCC1 |
| 658 | CCCCN(C)C(=O)CCC1CCCN(c2cc(NCC)ncn2)C1 (centres undefined) |
| 943 | Cc1ccc(CNC(=O)c2ccc(Cn3c(C(F)(F)F)nc4cccnc43)cc2)cc1 |
| 615 | Cc1cccc(CN2CCC(CNC(=O)C3CCCN(c4nccc(C)n4)C3)CC2)c1 (centres undefined) |
| 799 | Cc1ccc(C)c(NS(=O)(=O)c2cc(-c3[nH]ncc3C(=O)N3CCCCC3)oc2C)c1 |
| 688 | CCCNC(=O)C1CCN(c2ccc(SCC(=O)Nc3ccc(Cl)cc3F)nn2)CC1 |
| 742 | Cc1ccc(NC(=O)C2CCCN(c3cn[nH]c(=O)c3)C2)cc1C (centres undefined) |
| 914 | Cc1oc2ccn(C)c(=O)c2c1C(=O)NCc1ccccc1Br |
| 828 | O=C(Nc1ccccc1F)N1CCC(n2cnc3c(Cl)cccc3c2=O)CC1 |
| 672 | COc1cc2c(cc1OC)C(=O)Cc1ccc3c(c1CN(C)CC2)OCO3 |
| 741 | O=C(CCC1CCN(S(=O)(=O)c2ccccc2)CC1)N1CCOCC1 |
| 944 | COc1ccc(Br)c(CC2C(=O)Nc3ccccc32)c1 (centres undefined) |
| 651 | CCn1cc(CCNC(=O)Cc2cccs2)c2cccnc21 |
| 889 | O=C(CN1C(=O)C2CCCCN2c2ccc(C(=O)N3CCCCC3)cc21)NC1CCCCC1 (centres undefined) |
| 677 | CC(=O)c1ccc(S(=O)(=O)N2CCC[C@@H]2C(=O)NCc2csc(C)n2)cc1 |
| 613 | CCN(CC)S(=O)(=O)c1ccc2c(c1)CC(C(=O)NCCN1CCCC1)N2C(C)=O (centres undefined) |
| 588 | O=c1oc2c(CN3CCCC3)c(O)ccc2c2c1CCC2 |
| 924 | CC(NC(=O)C(=O)c1c[nH]c2ccccc12)c1ccccc1 (centres undefined) |
| 651 | Cc1c(-c2nnc(C(=O)NCCN(C)C)o2)oc2c(C)cccc12 |

More lines, now with the values behind:

| Structure (SMILES) | RP-LC retention time [s] |
| --- | --- |
| O=C(NC1CCCCC1)C1CCCN(c2ccc(=O)n(-c3cccc(F)c3)n2)C1 (centres undefined) | 785 |
| CC1CCN(c2nc(-c3ccc(C(C)(C)C)cc3)nc3ccccc23)CC1 | 1070 |
| Cc1ccc(-n2c(Cc3cccn3C)nnc2SCC(=O)NCC2CCCO2)cc1 (centres undefined) | 744 |
| COc1cccc(NS(=O)(=O)c2cc(-c3[nH]ncc3C(=O)N(C)C)oc2C)c1 | 668 |
| Cn1c(=O)n(Cc2ccccc2)c(=O)c2c1nc(N1CCNCC1)n2Cc1ccccc1 | 672 |
| CCC(C)NC(=O)C1CCN(C2=NS(=O)(=O)C(c3ccc(OC)cc3)=C2C)CC1 (centres undefined) | 795 |
| O=C(NCc1ccccc1F)C1=C2CCCN2c2ccc(F)cc2S1(=O)=O | 868 |
| COc1cccc(C(=O)N2CCC3(CC2)NC(=O)c2ccccc2N3C)c1 | 718 |
| COc1ccccc1N1CCN(c2ncc(C(F)(F)F)cc2Cl)CC1 | 1210 |
| Cc1cc(Nc2ccccc2)nn1C(=O)c1ccc([N+](=O)[O-])cc1 | 987 |
| CC1CCC2(CC1)NC(=O)N(CC(=O)NCc1ccccc1F)C2=O (centres undefined) | 772 |
| CCCc1nc(-c2c(C)cc(C)nc2NC(=O)c2cccc(Cl)c2)no1 | 986 |
| O=C(NC1CCCCC1)C1CC(=O)N(c2ccc3c(c2)CCN3C(=O)C2CC2)C1 (centres undefined) | 733 |
| O=C1CCN(C(=O)CC2CCCCC2)CCCOCCN1 | 646 |
| CCOC(=O)c1noc2ncnc(N(CCN(C)C)Cc3ccccc3)c12 | 656 |
| COc1ccccc1CCC(=O)NCc1ccc2c(c1)ncn2C | 595 |
| CN(C)CCNC(=O)c1cc(N2CCCC2)n2nccc2n1 | 590 |
| Cc1ccc(C)c(NC(=O)C2CC(=O)N(c3n[nH]c4cccc(F)c34)C2)c1 (centres undefined) | 758 |
| COc1ccc(N2CC(c3noc(-c4ccc(Cl)cc4OC)n3)CC2=O)cc1 (centres undefined) | 971 |
| Cc1cccc(N2CCN(C(=O)C3CCN(C(=O)C4Sc5ccccc5NC4=O)CC3)CC2)c1C (centres undefined) | 918 |
| Cc1nnc2n1CCC(NC(=O)Cc1cccs1)CC2 (centres undefined) | 550 |
| CCN1CCN(CCCNC(=O)C2=Cc3cc(OC)ccc3OC2)CC1 | 578 |
| Cc1ccc(S(=O)(=O)N2CCCC2c2nc(-c3ccc(Cl)cc3)no2)cc1C (centres undefined) | 1300 |
| Cc1cc(C)c(C(=O)N2CCC(CC(=O)NCCCN3CCN(C)CC3)CC2)[nH]1 | 566 |
| O=c1c2sccc2n(Cc2nc(-c3ccc(F)c(Cl)c3)no2)c(=O)n1Cc1ccccc1 | 1210 |

| Structure (SMILES) | RP-LC retention time [s] |
| --- | --- |
| Cc1ccc2oc(-c3nnc(C(=O)NCCCN4CCCC4)o3)c(C)c2c1 | 688 |
| COc1ccc(-c2noc(C3CC(=O)N(c4ccc5c(c4)OCCO5)C3)n2)cc1 (centres undefined) | 897 |
| O=C(Cn1cccc1-c1nc(-c2ccc3c(c2)OCO3)no1)Nc1cc(F)ccc1Cl | 1110 |
| CCCn1c(=O)sc2cc(S(=O)(=O)N3CCC(C(=O)Nc4ccc(C)c(C)c4)CC3)ccc21 | 1030 |
| COC(=O)c1c(N)n(C(C)c2ccccc2)c2nc3ccccc3nc12 (centres undefined) | 727 |
| O=C(c1cc(-c2ccncc2)n[nH]1)N1CCN(C(=O)C2(c3ccccc3)CC2)CC1 | 590 |
| O=C(C1CCN(c2ncccc2-c2nc(-c3cccc(Cl)c3)no2)CC1)N1CCOCC1 | 982 |
| COc1cccc(-c2cc(C(N)=O)c3ccccc3n2)c1 | 760 |
| COCCNC(=O)C(C)Sc1ccc(=O)n(-c2ccc(C)c(Cl)c2)n1 (centres undefined) | 731 |
| CC(C)Cn1c(=O)c2cc(C(=O)NC(C)c3cccs3)nn2c2ccccc21 (centres undefined) | 1050 |
| COc1ccccc1NC(=O)c1ccc2nc(-c3ccccc3)cn2c1 | 725 |
| CCN1CCN(C(=O)CN2C(=O)C3CCCCN3c3ccc(S(=O)(=O)N4CCCC4)cc32)CC1 (centres undefined) | 644 |
| CC1=C(c2ccc(C)c(C)c2)S(=O)(=O)N=C1N1CCCN(C(=O)NC(C)C)CC1 | 787 |
| O=C(CC(c1cccs1)N1Cc2ccccc2C1=O)N1CCN(c2ccccn2)CC1 (centres undefined) | 632 |
| Cc1ccc(C)c(CNC(=O)c2ccc3ncnc(N4CCCC4)c3c2)c1 | 678 |
| O=S(=O)(c1cccn2cnnc12)N(Cc1ccc(F)cc1)c1ccc(F)cc1 | 834 |
| CC1(C(=O)NCc2ccccc2)CCCN(C(=O)Nc2cccc(Br)c2)C1 (centres undefined) | 983 |
| CNC(=O)C1CCCN(c2nc3ncn(CC(=O)NCc4ccc(OC)cc4)c(=O)c3s2)C1 (centres undefined) | 632 |
| COc1ccc(Br)cc1CNC(=O)CCC(=O)N1Cc2cccn2-c2ccccc21 | 993 |
| O=C(NCc1ccc2c(c1)OCO2)C(=O)NCC1(CO)CC1 | 627 |
| CCc1cccc(NC(=O)c2cc(C)n3nccc3n2)c1 | 1030 |
| O=C(NCc1cccnc1)C1CCN(c2nc3ccc(-c4cncnc4)nc3s2)CC1 | 584 |
| COc1cccc(C(=O)N2CCN=C2N2CCCC2)c1OC | 614 |
| COc1ccc(CNC(=O)c2ccc3c(=O)n(-c4ccc(F)cc4)c(N4CCCC4)nc3c2)cc1 | 852 |
| CCn1ccc2oc(C)c(C(=O)N3CCN(c4ccc(Cl)cc4)CC3)c2c1=O | 854 |
